One data set relates to NPC-TW07 cells. The experiment in a line: Flow cytometry analysis of FITC-peptide binding to cells. It is filed as cell-based. An excerpt:
(§1) The cultured cells, including nasopharyngeal carcinoma (NPC-TW01 and NPC-TW07), non-small cell lung cancer (H1299 and A549), neuroblastoma (Be2C), breast cancer (MB157) and immortalized embryonic renal epithelia (TEKID) ([…]) are subjected to flow cytometer (FACSCAN, BD Co., U.S.A.) after the FITC (Fluorescein isothiocyanate)-targeted peptide SEQ ID NO:1 treatment. Simultaneously, FITC-control peptide, FITC-biotin-targeted peptide SEQ ID NO: 1 (B-P) and FITC-biotin-control peptide (B-C-P) are used for flow cytometry comparison.
Background: A flow cytometer gives signals particle by particle.

The test system of data set [1] is immortalized embryonic renal cell line (293T). The data set is described as above. In kind it is cell-based, human. The following applies: 293T immortalized renal cell line.
Description: as §1

Data set [2] relates to neuroblastoma (Be2C) cells. The data set is described as above. It is filed as cell-based.
Description: as §1

The test system of data set [3] is non-small cell lung cancer (H1299) cells. The description is as above. In kind it is cell-based.
Description: as §1

The subject of the next data set is NPC-TW01 cells. The description is as above. It is filed as cell-based.
Description: as §1

The subject of data set [4] is non-small cell lung cancer (A549) cells. Described as above. It is filed as cell-based.
Description: as §1

Data set [5] relates to breast cancer (MB157) cells. Described as above. In kind it is cell-based.
Description: as §1

For data set [6], the system named is hepatoma and pancreatic cancer cells. The experiment in a line: FITC-peptide binding to hepatoma and pancreatic cancer cells. In kind it is cell-based.
Data set [7] concerns hepatocellular carcinoma surgical specimens. The experiment in a line: Peptide histochemistry of hepatocellular carcinoma (HCC) surgical specimens. Further details: species or system human. The following applies: for Prussian blue staining pattern in HCC surgical sections: 40 μg per mL, overnight; for Average percentage of stained tumor cell number 25-50% / Average percentage of stained tumor cell number <25% / Average percentage of stained tumor cell number >75%: N = 30, ten HPF (x 400). On the procedure:
For hepatocellular carcinoma surgical specimens, after the deparaffinization of the paraffin-embedded sections and retrieval of targeted protein molecule, as part of the routine immunohistochemistry described as above-mentioned, the sections were incubated overnight with (a) The L-P-Fe3O4 (40 μg per mL); (b) SP-94-P-Fe3O4 (40 μg/mL); (c) one to one ratio of (a) and (b), then with routine Prussian blue reagents, followed by a counter staining for 2 min with nuclear fast red solution. The present invention has used this method to examine 30 hepatocellular carcinoma surgical specimens without difficulty. To count the positive stained cell number of the Prussian blue stained cells in each paraffin section, which are counted 10 high power fields (×400).

A further data set concerns NPC cells (NPC-TW01). The experiment in a line: Prussian blue staining of cultured NPC cells incubated with peptide-linked iron oxide nanoparticles. It is filed as cell-based. Conditions: 4° C. for 1.0 hr and 37° C. for 4 hr. An excerpt: The dextran coated-Fe3O4 is linked with the targeted peptide SEQ ID NO:1 or the FITC-targeted peptide SEQ ID NO:1 by the MagQu Company. Dextran is used as the hydrophilic surfactant layer. The iron oxide fluid with the desired concentration is available by diluting the highly concentrated iron oxide fluid with a pH 7.4 phosphate buffered saline (PBS) solution. […] Cells are washed in a 2% fetal bovine serum in PBS. After fixation, the binding ability between the targeted peptide SEQ ID NO: 1 and tumor cells can be observed by Prussian blue reagent; each iron oxide nanoparticle is bound by approximately above 10 targeted peptides.

Data set [8] deals with pancreatic cancer sections. The experiment in a line: Peptide histochemical localization in pancreatic surgical specimens. The following applies: formalin-fixed paraffin-embedded. Further details: species or system human. The source says:
Peptide histochemical diagnosis of the present invention can be applied to pancreatic surgical specimens, ether the targeted peptide is SEQ ID NO: 1 or SEQ ID NO: 2.

Data set [9] concerns pancreatic cancer (Pan 1) cell line. The experiment in a line: Prussian blue staining of pancreatic cancer cell line. It is filed as cell-based.
Description: (§3) Blood monocytes, hepatoma (Hep G2) and pancreatic cancer (Pan 1) cell lines are incubated with P-Dex-Fe3O4 nanoparticle for 1.0 hr and 37° C. for 4 hr, and then are stained with Prussian blue reagent.
Data set [10] relates to normal peripheral blood cells. The experiment in a line: Prussian blue staining of normal peripheral blood smears. In kind it is cell-based, human. An excerpt:
The present invention prepared L-peptide-linked dextran-coated iron oxide nanoparticles, such as, L-P-Fe3O4, SP-94-P-Fe3O4, PC5-52-P-Fe3O4 and control-peptide-Fe3O4 nanoparticles (C-P-Fe3O4). The dextran coated-Fe3O4 nanoparticles (Dex-Fe3O4) were purchased from MAGQU Company. This company conjugates L-peptide, SP-94-peptide and PC5-52-peptide, separately, to the Dex-Fe3O4 nanoparticles. Each Dex-Fe3O4 can be linked with more than 10 peptide molecules. For localization of the peptide targeted protein in HepG2 and Huh-7 cell lines, the present invention first have to check whether our peptide can also bind to the mononuclear cells in the human peripheral blood. The mononuclear cells were obtained from the normal personal blood using Histopaque-1077 solution (SIGMA, St, Louis, Mo. U.S.A).
(§2) After the blood smears were fixed by formaldehyde, they were treated with or without Triton X-100 detergent and then stained with L-P-Fe3O4, SP-94-P-Fe3O4 or Control-P-Fe3O4 (C-P-Fe3O4) (40 μg/mL) and subjected to Prussian blue reaction with nuclear fast red contrast staining. Using the similar peptide histochemical procedure, the HepG2 and Huh-7 tumor cells were also stained. But in addition to the L-P-Fe3O4 and SP-94-P-Fe3O4, a ratio of 1:1 of L-P-Fe3O4: SP-94-P-Fe3O4 were mixed and used to stain the HepG2 and Huh-7 tumor cells.

For a further data set, the system named is HepG2 tumor cells. The experiment in a line: Prussian blue staining of formalin-fixed, Triton X-100 treated HCC cell line. In kind it is cell-based. The protocol:
as §2

A further data set deals with Huh-7 tumor cells. The description is as above. In kind it is cell-based. The protocol: as §2
Data set [11] deals with breast cancer surgical specimens. The experiment in a line: Peptide histochemical localization in breast cancer surgical specimens. Also on record: species or system human.
Description: (§4) The sections are incubated overnight at 4° C. with the P-Dex-Fe3O4 nanoparticles, and washed with PBS, then are incubated for 15-30 min with routine Prussian blue reagent (containing 2% potassium ferricyanide (Sigma-aldrich.com. St Louis Mo., U.S.A.) and 0.5 N HCl in dH2O=1:1), followed by counterstaining for 5 min with nuclear fast red solution, washed with water, and mounted with 50% glycerol directly or with balsam after alcohol dehydration.
Another data set concerns blood monocytes. The experiment in a line: Prussian blue staining of blood monocytes. It is filed as cell-based. The following applies: 1.0 hr and 37° C. for 4 hr.
The subject of data set [12] is hepatoma (Hep G2) cell line. The experiment in a line: Prussian blue staining of hepatoma cell line. It is filed as cell-based. An excerpt:
In addition to the targeted peptide SEQ ID NO: 1, the present invention also provides another targeted peptide SEQ ID NO: 2 for synthesizing the targeted peptide SEQ ID NO: 2-linked dextran-coated iron oxide nanoparticles.

Data set [13] relates to breast cancer cells (MDA-MB-231). The experiment in a line: Prussian blue staining of breast cancer cell line. It is filed as cell-based.
A further data set concerns NPC biopsy specimens. The experiment in a line: Peptide histochemical localization in formalin-fixed paraffin-embedded NPC biopsy specimens. Also on record: species or system human. The following applies: overnight at 4° C.
Data set [14] concerns hepatoma surgical specimens. The experiment in a line: Peptide histochemical localization in hepatoma surgical specimens. Also on record: species or system human. The following applies: for Prussian blue reaction product in tumor cells of hepatoma sections: formalin-fixed paraffin-embedded. The source says:
Peptide histochemical diagnosis of the present invention can be applied to hepatoma surgical specimens.

For the next data set, the system named is HepG2 xenografts. The experiment in a line: Peptide targeted chemotherapy of mice bearing HepG2 xenografts. In kind it is in vivo. The following applies: SCID mice bearing hepatoma xenograft. The protocol:
For the peptide targeted chemotherapy, 40 male SCID mice were transplanted with […] HepG2 cells into their right thigh subcutaneously; after 10 days, solid xenografts measuring approximately 0.8 cm in diameter were found in each mouse, then they were divided into four groups (each group included 10 mice). The first group was injected with PBS; the second and third groups were injected either with L-P-L-D or PC5-52-P-L-D, separately. Each dose contained 2 mg doxorubicin/kg of mouse body weight. The fourth group mice were injected with L-P-L-D (1 mg doxorubicin/kg) mixed with PC5-52-P-L-D (1 mg doxorubicin/kg). All doses were injected through the tail vein, once per week, for a total of 4 injections, and all animals were sacrificed at day 35. The body weight and tumor size were measured weekly. All animals were examined by routine autopsy. The xenograft tumors and all visceral organs were examined by histopathological sections after stained by hematoxylin and eosin. The pegylated peptide was linked to L-D in our laboratory according to our previously published methods (Cancer Res. 64:8002-8008, Nov. 1, 2004). For comparison, another animal experiment was performed. In the later experiment, the present invention used NSG (NOD-SCID immunodeficiency gamma strain animals); the experiments were totally similar to the NOD SCID mice case. […]

The test system of a further data set is NPC cells. The experiment in a line: Addition of targeted peptide to NPC cell culture medium. In kind it is cell-based. Conditions: 1 mg/mL in NPC cells culture medium, sustained to 10 days. An excerpt:
Apparently, this finding indicate that the protein bound by the targeted peptide is not a receptor protein or the like thereof.

Where two headings read alike, the source gives them in different places. No end group written: not given here.

Description for NPC biopsy specimens: as §4
Description for blood monocytes: as §3

For “FITC-linked control peptide SEQ ID NO: 3: FITC-labelled control peptide (RLLDTNRPLGGG; also: FITC label) [reference compound]”, the “binding to NPC-TW07 cells (flow cytometry histogram)” value with NPC-TW07 cells is given as “very weak binding activity”.

Consider “FITC-targeted peptide SEQ ID NO: 1: fluorescein isothiocyanate-labelled targeted peptide SEQ ID NO:1 (RLLDTNRPLLPY; also: FITC label)”, for which the “binding to 293T cells (flow cytometry)” value in data set [1] was “without showing any binding phenomenon”. For the same substance, in data set [2], the “binding to Be2C cells (flow cytometry)” value is recorded as “a clear binding peak”. The “binding to H1299 cells (flow cytometry)” value in data set [3] is recorded as “a clear binding peak”. The “binding to NPC-TW01 cells (flow cytometry)” value in the data set on NPC-TW01 cells was “a clear binding peak”. The “binding to A549 cells (flow cytometry)” value in [4] is given as “a clear binding peak”. Also, the “binding to NPC-TW07 cells (flow cytometry histogram)” value in the data set with NPC-TW07 cells is given as “a clear peak is found in the histogram”. The “binding to MB157 cells (flow cytometry)” value in data set [5] is given as “a clear binding peak”.

As to “FITC-targeted peptide SEQ ID NO: 2: FITC-labelled targeted peptide SEQ ID NO: 2 (SFSIIHTPILPL; also: FITC label)”, the “binding to hepatoma and pancreatic cancer cells” value in [6] was “can be used to bind to hepatoma and pancreatic cancer cells”.

As to P-Dex-Fe3O4 (RLLDTNRPLLPY), in data set [7], the “Prussian blue staining pattern in HCC surgical sections” value is given as “the Prussian blue reaction product was easily identified in the tumor cells in stained sections”, the “Average percentage of stained tumor cell number 25-50%” value is listed as 7 cases, the “Average percentage of stained tumor cell number <25%” value was determined as 6 cases and the “Average percentage of stained tumor cell number >75%” value was found to be 17 cases. The “Prussian blue reaction product in NPC cells” value in the data set on NPC cells (NPC-TW01) is reported as “the reaction products are seen in the cytoplasm of a majority of the tumor cells”. Besides, in [8], the “Prussian blue reaction product in pancreatic cancer sections” value is “all show the reaction products”. For the same substance, in data set [9], the “Prussian blue reaction product in pancreatic cancer cell line” value is reported as “show blue reaction products”. The “Prussian blue reaction product in fixed blood smears treated with Triton X-100” value in data set [10] (with Triton X-100) is “the mononuclear cells but not red blood cells showed blue reaction product in their cytoplasm”. In addition, in data set [10] (without Triton X-100), the “Prussian blue reaction product in blood smears fixed in formalin” value is listed as “no reaction product was seen”. In addition, in the data set with HepG2 tumor cells, the “Prussian blue stained HepG2 tumor cells” value was “many tumor cells were stained by a blue reaction product”. Further, the “Prussian blue stained Huh-7 tumor cells” value with Huh-7 tumor cells was “stained cell number is somewhat a little more than that of SP-94-P-Fe3O4 stained case”. Moreover, the “Prussian blue reaction product in tumor cells from breast cancer metastatic axillary lymph nodes” value in data set [11] is listed as “reveal blue reaction product”. Also, the “Prussian blue reaction product in stromal regions in tumor nests” value in data set [11] (breast cancer sections) is “no blue reaction product”. Moreover, in [11] (formalin-fixed paraffin-embedded, specimens more than 1 cm in diameter), the “Prussian blue reaction product in breast cancer sections” value is given as “show the Prussian blue reaction products”. Moreover, the “Prussian blue reaction product in blood monocytes” value in the data set with blood monocytes was “no reaction product”. Moreover, the “Prussian blue reaction product in hepatoma cell line” value in [12] is listed as “show blue reaction products”. Moreover, in [12] (listed as targeted peptide SEQ ID NO:1-linked dextran-coated iron oxide nanoparticles), the “Prussian blue reaction product in hepatoma cell line” value is “blue reaction product”. For the same substance, the “Prussian blue reaction product in breast cancer cells” value in data set [13] was “the reaction products appear in most of the cytoplasm of breast cancer cells”. Further, the “Prussian blue reaction product in tumor cells of NPC biopsy sections” value in the data set with NPC biopsy specimens is given as “the Prussian blue reaction product is easily identified in the tumor cells of stained sections”. Moreover, in data set [14], the “Prussian blue reaction product in tumor cells of hepatoma sections” value was “show in single infiltrating tumor cells”. The “Prussian blue reaction product in normal cells of hepatoma sections” value in data set [14] (normal cells compressed by tumor cells) is reported as “the blue reaction products do not show in the normal cells”.

For SP-94-P-Fe3O4 (SFSIIHTPILPL), in data set [7], the “Prussian blue staining pattern in HCC surgical sections” value is “the staining pattern was the same as L-P-Fe3O4 staining”, the “Average percentage of stained tumor cell number 25-50%” value is reported as 9 cases, the “Average percentage of stained tumor cell number <25%” value was 5 cases and the “Average percentage of stained tumor cell number >75%” value is 16 cases. In addition, the “Prussian blue reaction product in pancreatic cancer sections” value in data set [8] is “all show the reaction products”. Further, the “Prussian blue stained HepG2 tumor cells” value with HepG2 tumor cells is recorded as “the stained cell number was lower than that of the L-P-Fe3O4 treated case”. Further, the “Prussian blue reaction product in hepatoma cell line” value in data set [12] is given as “blue reaction product”. The “Prussian blue reaction product in tumor cells of hepatoma sections” value in data set [14] is on record as “the Prussian blue products can also be observed in the tumor cells”.

With “control peptide (RLLDTNRPLGGG; also: FITC or biotin label)”, in the data set on HepG2 xenografts, the “adverse event / visceral organs” value was “the visceral organs revealed marked apoptotic change” and the “tumor growth / xenograft size” value is recorded as “the xenograft size was also decreased”.

On to “targeted peptide SEQ ID NO: 1: 12 amino acid targeted peptide (L-peptide) obtained from nasopharyngeal carcinoma (RLLDTNRPLLPY)”, for which the “change of tumor cell morphology and behavior” value in the data set with NPC cells was “no any specific change of tumor cell morphology and behavior”.
